According to ChEMBL document CHEMBL5518182, “Discovery and development of BI 1265162, an ENaC inhibitor for the treatment of cystic fibrosis” (Eur J Med Chem, 2024):
Calls of active or inactive are those of the source. The rule behind the calls is not given here.

Key:
[1] = Inhibition of ENaC in mouse M1 cells upto 10 uM by chamber assay; assay type: cell-based; details: m1 cell
[2] = system: Lung; test: Inhibition of lung water resorption in Wistar rat at 30 ug/kg, IT(Intratracheal) incubated for 3 hrs relative to control; assay type: functional
[3] = system: Lung; test: Inhibition of lung water resorption in Wistar rat at 3 ug/kg, IT(Intratracheal) incubated for 3 hrs relative to control; assay type: functional
[4] = Permeability across basal to apical side in human Calu-3 cells at 0.1 to 300 uM measured upto 2 hrs by HPLC-MS/MS analysis; assay type: ADME, cell-based; details: dose 0.1-300 µM, read-out: permeability
[5] = Solubility of compound at pH 5; assay type: physicochemical; details: buffer
[6] = system: M1 cell; test: Inhibition of ENaC-mediated water resorption in mouse M1 cells at 3 uM by radiometric dilution assay relative to control; assay type: cell-based
[7] = target: Acetylcholinesterase (Homo sapiens) (UniProt P22303); test: Inhibition of AChE (unknown origin) at 10 uM relative to control
Sequence of Acetylcholinesterase (Homo sapiens) (P22303 whole entry): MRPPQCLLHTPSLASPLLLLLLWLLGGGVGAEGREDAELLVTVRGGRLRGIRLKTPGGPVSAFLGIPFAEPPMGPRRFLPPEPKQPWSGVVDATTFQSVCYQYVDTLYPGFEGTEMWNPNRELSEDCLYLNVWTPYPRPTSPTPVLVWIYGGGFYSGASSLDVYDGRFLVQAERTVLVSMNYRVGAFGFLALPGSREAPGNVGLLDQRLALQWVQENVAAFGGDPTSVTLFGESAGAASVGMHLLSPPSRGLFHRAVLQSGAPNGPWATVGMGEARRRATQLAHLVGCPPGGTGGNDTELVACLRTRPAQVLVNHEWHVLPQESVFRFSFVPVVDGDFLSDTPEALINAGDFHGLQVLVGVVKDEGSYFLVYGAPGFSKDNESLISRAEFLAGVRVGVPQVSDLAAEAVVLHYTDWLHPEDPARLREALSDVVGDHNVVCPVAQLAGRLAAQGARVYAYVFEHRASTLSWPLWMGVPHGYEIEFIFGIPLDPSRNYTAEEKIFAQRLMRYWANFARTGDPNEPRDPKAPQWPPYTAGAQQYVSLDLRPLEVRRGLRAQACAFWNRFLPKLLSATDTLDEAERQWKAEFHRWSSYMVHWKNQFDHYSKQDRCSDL

[8] = system: Lung; test: Inhibition of lung water resorption in Wistar rat at 0.3 ug/kg, IT(Intratracheal) incubated for 3 hrs relative to control; assay type: functional
[9] = system: Rattus norvegicus; test: Acute effect on Han Wistar rat model of lung fluid absorption administered intratracheally measured after 3 hrs; assay type: functional; details: route it(Intratracheal)
[10] = organism: Rattus norvegicus; test: Upregulation of serum potassium level in Han Wistar rat; assay type: functional, organism-based
[11] = system: Rattus norvegicus; test: Effect on Han Wistar rat model of lung fluid absorption at ED70 administered intratracheally measured after 20 hrs; assay type: functional; details: route it(Intratracheal)
[12] = system: Rattus norvegicus; test: Upregulation of serum aldosterone level in Han Wistar rat model of lung fluid absorption at 3 ug/kg, IT(Intratracheal) measured after 3 hrs relative to control; assay type: functional; details: dose 3 µg/kg

Compound | IC50 [1] | Papp B→A at 2 h, up to 300 µM [4] | solubility [5] | inhibition [6] | also measured
Cn1c(CNC(=O)c2nc(Cl)c(N)nc2N)[n+](C)c2ccccc21 | 19 nM |  |  |  | 
CCn1c(CNC(=O)c2nc(Cl)c(N)nc2N)[n+](CC)c2cc(OCCCP(=O)([O-])OC[C@H]3CCCO3)ccc21 | 10 nM | 0.06 ×10⁻⁶ cm/s | > 5% | 89% | inhibition in vivo at 0.03 mg/kg [2]: 16%; inhibition in vivo at 0.003 mg/kg [3]: 14%
CCn1c(CNC(=O)c2nc(Cl)c(N)nc2N)nc2cc(OC)ccc21 | 168 nM |  |  |  | 
CCn1c(CNC(=O)c2nc(Br)cnc2N)[n+](CC)c2ccccc21 | 0.7 nM |  |  |  | 
CCn1c(CNC(=O)c2nc(Cl)c(N)nc2N)[n+](CC)c2ccccc21 | 0.2 nM |  |  |  | 
CCn1c(CNC(=O)c2nc(Cl)cnc2N)[n+](CC)c2cc(C(=O)N3CCC(N)CC3)ccc21 | 5 nM | 0.18 ×10⁻⁶ cm/s | > 2% | 84% | inhibition in vivo at 0.03 mg/kg [2]: 26%; inhibition in vivo at 0.003 mg/kg [3]: 13%
CC[n+]1c(CNC(=O)c2nc(Cl)cnc2N)n(CC2CCOCC2)c2ccc(OCC(=O)N(Cc3nc(C)ccc3O)C[C@H](C)O)cc21 | 8.6 nM | 0.12 ×10⁻⁶ cm/s | > 5% | 72% | inhibition [7]: 18%; inhibition in vivo at 0.03 mg/kg [2]: 33%; inhibition in vivo at 0.003 mg/kg [3]: 17%; inhibition in vivo at 0.0003 mg/kg [8]: 8%
CCn1c(CNC(=O)c2nc(Cl)c(N)nc2N)[n+](CCO)c2cc(OCC(=O)N3CCN(C(C)=O)CC3)ccc21 | 3.1 nM | 0.31 ×10⁻⁶ cm/s | < 2% | 92% | 
CCn1c(CNC(=O)c2nc(Cl)c(NC)nc2N)[n+](CC)c2ccccc21 | 305 nM |  |  |  | 
CCn1c(CNC(=O)c2nc(Cl)cnc2N)[n+](CC)c2ccccc21 | 0.7 nM |  |  |  | 
CCn1c(CNC(=O)c2nc(Cl)cnc2N)[n+](CC)c2cc(OCC(=O)NCCOCP(C)(C)=O)ccc21 | 3.4 nM |  |  | 72% | inhibition [7]: 29%; ED50 [9]: 0.09 µg/kg; ED70 [9]: 0.18 µg/kg; Activity [10]: inactive; inhibition in vivo at 0.03 mg/kg [2]: 30%; inhibition in vivo at 0.003 mg/kg [3]: 31%; Efficacy [11]: 31%; inhibition in vivo at 0.0003 mg/kg [8]: 30%; Activity [12]: <25%
CCn1c(CNC(=O)c2nc(Cl)cnc2N)[n+](CC)c2ccc(C(=O)NCCCN)cc21 |  | 0.22 ×10⁻⁶ cm/s | > 2% |  | 
CC[n+]1c(CNC(=O)c2nc(Cl)c(N)nc2N)[nH]c2ccc(OC)cc21 | 26 nM |  |  |  | 
CCn1c(CNC(=O)c2nc(Cl)c(N)nc2N)[n+](CC)c2cc(OC)ccc21 | 0.3 nM |  |  |  | 
CCn1c(CNC(=O)c2nc(Cl)cnc2N)[n+](CCO)c2cc(OCC(=O)N3CCN(C(C)=O)CC3)ccc21 | 18 nM | 0.7 ×10⁻⁶ cm/s | > 5% | 76% | inhibition [7]: 75%; inhibition in vivo at 0.003 mg/kg [3]: 75%
CC[n+]1c(CNC(=O)c2nc(Cl)c(N)nc2N)n(CC(=O)O)c2ccc(OC)cc21 | 6.5 nM |  |  |  | 
CCn1c(CNC(=O)c2nccnc2N)[n+](CC)c2ccccc21 | 169 nM |  |  |  | 
CCOP(=O)([O-])CCCOc1ccc2c(c1)[n+](CC)c(CNC(=O)c1nc(Cl)c(N)nc1N)n2CCCC#N | 19 nM | 0.22 ×10⁻⁶ cm/s | > 5% | 83% | inhibition in vivo at 0.03 mg/kg [2]: 16%; inhibition in vivo at 0.003 mg/kg [3]: 6%

Compound | IC50 [1] | Papp B→A at 2 h, up to 300 µM [4] | solubility [5] | inhibition [6] | also measured
CC[n+]1c(CNC(=O)c2nc(Cl)c(N)nc2N)n(CC2CCOCC2)c2ccc(OCC(=O)N(Cc3nc(C)ccc3O)C[C@H](C)O)cc21 | 2.5 nM | 0.2 ×10⁻⁶ cm/s | < 2% | 63% | 
CCn1c(CNC(=O)c2nc(Cl)cnc2N)[n+](CC)c2cc(OCC(=O)OC)ccc21 | 0.7 nM | 0.25 ×10⁻⁶ cm/s |  | 65% | 
CCn1c(CNC(=O)c2nc(Cl)c(N)nc2N)[n+](CCCO)c2cc(OC)ccc21 | 0.3 nM |  |  |  | 
CCn1c(CNC(=O)c2nc(Cl)c(N)nc2N)[n+](CCO)c2cc(OC)ccc21 | 0.5 nM |  |  |  | 
CC[n+]1c(CNC(=O)c2nc(Cl)c(N)nc2N)n(CC(=O)OC)c2ccc(OC)cc21 | 0.5 nM |  |  |  | 
CCn1c(CNC(=O)c2ncc(C)nc2N)[n+](CC)c2ccccc21 | 1670 nM |  |  |  | 
CCn1c(CNC(=O)c2nc(Cl)cnc2N)[n+](CC)c2cc(C(=O)OC)ccc21 | 3 nM |  |  |  | 
CC[n+]1c(CNC(=O)c2nc(Cl)cnc2N)n(CCOCCOCCO)c2ccc(OC)cc21 | 3 nM |  |  |  | 
CCn1c(CNC(=O)c2nc(Cl)cnc2N)[n+](CC)c2cc(C(=O)O)ccc21 | 29 nM | 0.17 ×10⁻⁶ cm/s |  |  | 
CC[n+]1c(CNC(=O)c2nc(Cl)c(N)nc2N)n(CCOCCOCCO)c2ccc(OC)cc21 | 0.5 nM |  |  |  | 
CCn1c(CNC(=O)c2nc(Cl)cnc2N)[n+](CC)c2cc(C(=O)N3CCC(N(C)C)CC3)ccc21 | 4.2 nM | < 0.13 ×10⁻⁶ cm/s | > 2% | 79% | inhibition [7]: 11%; inhibition in vivo at 0.03 mg/kg [2]: 26%; inhibition in vivo at 0.003 mg/kg [3]: 25%; inhibition in vivo at 0.0003 mg/kg [8]: 19%
CCn1c(CNC(=O)c2cc(Cl)cnc2N)[n+](CC)c2ccccc21 | 50 nM |  |  |  | 
CCn1c(CNC(=O)c2nc(Cl)cnc2N)[n+](CC)c2cc(OCC(=O)O)ccc21 | 16 nM | 0.22 ×10⁻⁶ cm/s |  | 70% | 
CCn1c(CNC(=O)c2cc(Cl)ccc2N)[n+](CC)c2ccccc21 | 19 nM |  |  |  | 
CCn1c(CNC(=O)c2nc(Cl)cnc2N)[n+](CC)c2cc(C(=O)NCCCN)ccc21 | 3.6 nM |  |  | 83% | inhibition in vivo at 0.03 mg/kg [2]: 24%; inhibition in vivo at 0.003 mg/kg [3]: 25%
CCOP(=O)([O-])CCCOc1ccc2c(c1)[n+](CC)c(CNC(=O)c1nc(Cl)c(N)nc1N)n2CC1CCOCC1 | 8.3 nM | 0.17 ×10⁻⁶ cm/s | < 5% | 81% | 
Cn1c(CNC(=O)c2nc(Cl)cnc2N)[n+](C)c2ccccc21 | 81 nM |  |  |  | 
CCn1c(CNC(=O)c2nc(Cl)c(N)nc2N)[n+](CC)c2cc(OCCCP(=O)([O-])OCCOC)ccc21 | 4.2 nM | 0.03 ×10⁻⁶ cm/s | > 5% | 98% | inhibition in vivo at 0.03 mg/kg [2]: 22%; inhibition in vivo at 0.003 mg/kg [3]: 12%
